pIC50: −log10 of the molar value. Counter-ions that a name gives are not always drawn.
Legend:
Human CCR3 = target: T1, Human CCR3 (Homo sapiens, UniProt P51677); assay: Receptor binding assay (RBA), [125I]-eotaxin on human CCR3-transformed K562 cells; conditions: compounds of about 40 to 90% purity, read-out: Activity grade CCR3
T1 construct: The cloned CCR3 cDNA was constructed with pcDNA3 vector and transfected into a K562 cell line; expressed in transfected cells
T1 sequence (P51677 1-355): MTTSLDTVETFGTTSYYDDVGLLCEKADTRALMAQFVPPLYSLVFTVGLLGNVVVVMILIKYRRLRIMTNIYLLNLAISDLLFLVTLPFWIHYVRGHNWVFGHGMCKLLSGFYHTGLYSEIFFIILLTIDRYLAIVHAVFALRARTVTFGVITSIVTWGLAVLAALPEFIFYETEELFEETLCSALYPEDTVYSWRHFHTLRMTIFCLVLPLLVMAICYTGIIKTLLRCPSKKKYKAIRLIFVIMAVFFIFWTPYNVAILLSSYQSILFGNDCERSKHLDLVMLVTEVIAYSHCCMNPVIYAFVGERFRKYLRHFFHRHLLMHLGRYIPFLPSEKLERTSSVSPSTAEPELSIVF
Experimental: [Determination of IC50 Values of Compounds in Receptor Binding Assay]
• Human CCR3-transformed K562 cells were used. The cloned CCR3 cDNA was constructed with pcDNA3 vector and transfected into a K562 cell line. The human CCR3-transformed K562 cells were maintained in RPMI-1640 (Cat.#22400-089, Life Technologies) supplemented with 10% FCS (Cat.#A-1115-L, Hyclone), 55 μM 2-mercaptoethanol (Cat.#21985-023, Life Technologies), 1 mM sodium pyruvate (Cat.#11360-070, Life Technologies), 100 units/ml of penicillin G and 100 μg/ml of streptomycin (Cat.#15140-122, Life Technologies), and 0.4 mg/ml of Geneticin (Cat.#10131-035, Life Technologies) (hereinafter called “culture medium”). Before the receptor binding assay, cells were pretreated with 5 mM sodium butyrate (Cat.#193-01522, Wako)-containing the culture medium (2×10^5 cells/ml) for 20-24 hours to increase the expression of CCR3. (2) Receptor Binding Assay • Butyrate-pretreated cells, suspended in binding buffer (25 mM HEPES pH 7.6, 1 mM CaCl2, 5 mM MgCl2, 0.5% BSA, 0.1% NaN3) at a cell density of 2×10^6 cells/ml, were added into 60 μl/well in the 96-well round bottom polypropylene plate (Cat.#3365, Costar). Compounds, diluted with the binding buffer (4-times higher concentration of the final concentration), were added into 30 μl/well in the polypropylene plate. [^125I]-labeled human eotaxin (Cat.#IM290, Amersham Pharmacia Biotech), diluted with the binding buffer at the concentration of 0.4 nM (final concentration; 0.1 nM), was added into 30 μl/well in the polypropylene plate. Total 120 μl/well of binding reaction mixture (60 μl/well of cell suspension, 30 μl/well of compound solution, and 30 μl/well of [^125I]-labeled eotaxin) were incubated in the polypropylene plate for 1 hour at room temperature after the incubation, 100 μl/well of the reaction mixture was transferred to a filtration plate (Cat.#MAFB-N0B, Millipore), and washed with the washing buffer (25 mM HEPES pH 7.6, 1 mM CaCl2, 5 mM MgCl2, 0.5% BSA, 0.1% NaN3, 0.5 M NaCl) twice. The 96-well filtration plate was pretreated with 100 μl/well of 0.5% polyethylenimine (Cat.#P-3143, Sigma) for 2-4 hours at room temperature and washed with the washing buffer twice before use. The non-specific binding was determined by parallel incubation in the presence of 500 nM of non-labeled eotaxin (Cat.#23209, Genzyme Techne). The radioactivities remained on the filter were measured by liquid scintillation counter (TopCount™, Packard) after an addition of 45 μl/well of scintillant (Microscint20, Cat.#6013621, Packard). The inhibition percent at each concentration of compound was calculated, and IC50 values were determined from the inhibition curve. [Determination of IC50 Values of Compounds in Calcium Mobilization Assay] (1) Cell • Human CCR3-transformed K562 cells were used. The human CCR3-transformed K562 cells were maintained in RPMI-1640 supplemented with 10% FCS, 55 μM 2-mercaptoethanol (Cat.#21985-023, Life Technologies), 1 mM sodium pyruvate, 100 units/ml of penicillin G and 100 μg/ml of streptomycin, and 0.4 mg/ml of Geneticin. Before the calcium mobilization assay, cells were pretreated with 5 mM sodium butyrate-containing the culture medium (2×10^5 cells/ml) for 20-24 hours to increase the expression of CCR3. (2) Calcium Mobilization Assay • Butyrate-pretreated cells were loaded with Fluo-3AM (Cat.#F-1242, Molecular Probes) in loading buffer (Hanks' solution Cat.#05906 Nissui, 20 mM HEPES pH 7.6, 0.1% BSA, 1 mM probenecid Cat.#P-8761 Sigma, 1 μM Fluo-3AM, 0.01% pluronic F-127 Cat.#P-6866 Molecular Probes) at a cell density of 1×10^7 cells/ml. Then, cells were washed with calcium assay buffer (Hanks' solution Cat.#05906 Nissui, 20 mM HEPES pH 7.6, 0.1% BSA, 1 mM Probenecid Cat.#P-8761 Sigma). The cell suspension (3.3×10^6 cells/ml) was added into 60 μl/well in the 96-well clear bottom black plate (Cat.#3904, Costar). […]

Structure (SMILES)	pIC50 (Human CCR3)	melting point
N#Cc1ccc(Oc2cc(Cl)cc(Cl)c2)c(S(=O)(=O)N2CC3CCN(Cc4ccccc4)C3C2)c1 (stereo not shown) [Example 1-6]	> 7.00	
COC(=O)C1CN(S(=O)(=O)c2cc(C#N)ccc2Oc2cc(Cl)cc(Cl)c2)CCCN1 (stereo not shown) [Example 1-12]	6.30 to 7.00	
COC(=O)C1CNCCCN1S(=O)(=O)c1cc(C#N)ccc1Oc1cc(Cl)cc(Cl)c1 (stereo not shown) [Example 1-22]	> 7.00	
N#Cc1ccc(Oc2cc(Cl)cc(Cl)c2)c(S(=O)(=O)N2CCC(N3CCC[C@H]3C(=O)O)CC2)c1 [Example 1-33]	> 7.00	224 to 225 °C
CS(=O)(=O)NCC1CNCCCN1S(=O)(=O)c1cc(C#N)ccc1Oc1cc(Cl)cc(Cl)c1.Cl (stereo not shown) [Example 1-29]	> 7.00	183 to 184 °C
N#Cc1ccc(Oc2cc(Cl)cc(Cl)c2)c(S(=O)(=O)N2CCNC[C@@H]2Cc2c[nH]c3ccccc23)c1 [Example 1-26]	> 7.00	116 to 117 °C
N#Cc1ccc(Oc2cc(Cl)cc(Cl)c2)c(S(=O)(=O)N2CCNC(CN3C(=O)CCC3=O)C2)c1 (stereo not shown) [Example 1-43]	> 7.00	123 to 125 °C
CS(=O)(=O)NCC1CN(S(=O)(=O)c2cc(C#N)ccc2Oc2cc(Cl)cc(Cl)c2)CCN1 (stereo not shown) [Example 1-7]	> 7.00	
N#Cc1ccc(Oc2cc(Cl)cc(Cl)c2)c(S(=O)(=O)N2CCNCC2Cn2cncn2)c1 (stereo not shown) [Example 1-4, 4-(3,5-dichlorophenoxy)-3-{[2-(1H-1,2,4-triazol-1-ylmethyl)-1-piperazinyl]sulfonyl}benzonitrile hydrochloride]	> 7.00	
N#Cc1ccc(Oc2cc(Cl)cc(Cl)c2)c(S(=O)(=O)N2CCC[C@H]2CN2CCC[C@H]2CO)c1 [Example 1-46]	> 7.00	157 °C
CN(C)CCN(CCN1C(=O)CCC1=O)S(=O)(=O)c1cc(C#N)ccc1Oc1cc(Cl)cc(Cl)c1 [Example 1-2, 5-cyano-2-(3,5-dichloro-phenoxy)-N-(2-dimethylamino-ethyl)-N-[2-(2,5-dioxo-pyrrolidin-1-yl)-ethyl]-benzenesulfonamide]	> 7.00	
N#Cc1ccc(Oc2cc(Cl)cc(Cl)c2)c(S(=O)(=O)N2CCCCC2CN2CCC(O)C2)c1 (stereo not shown) [Example 1-35]	6.30 to 7.00	
N#Cc1ccc(Oc2cc(Cl)cc(Cl)c2)c(S(=O)(=O)N2CCN[C@@H](Cc3c[nH]c4ccccc34)C2)c1 [Example 1-3, 4-(3,5-dichloro-phenoxy)-3-[(3S)-(1H-indol-3-ylmethyl)-piperazine-1-sulfonyl]-benzonitrile]	> 7.00	
N#Cc1ccc(Oc2cc(Cl)cc(Cl)c2)c(S(=O)(=O)N(CCN2CCCC2)C2CCCC2)c1 [Example 1-42]	6.30 to 7.00	
CS(=O)(=O)NCC1CN(S(=O)(=O)c2cc(C#N)ccc2Oc2cc(Cl)cc(Cl)c2)CCCN1 (stereo not shown) [Example 1-28]	> 7.00	
N#Cc1ccc(Oc2cc(Cl)cc(Cl)c2)c(S(=O)(=O)N2CCNC(Cn3ncnn3)C2)c1 (stereo not shown) [Example 1-36]	> 7.00	
N#Cc1ccc(Oc2cc(Cl)cc(Cl)c2)c(S(=O)(=O)N2CCC(N3CCCC3)C(CN3C(=O)CCC3=O)C2)c1 (stereo not shown) [Example 1-44]	> 7.00	121 °C

The next lines start with the values.

pIC50 (Human CCR3)	melting point	Structure (SMILES)
6.30 to 7.00		CCN1CCCN(S(=O)(=O)c2cc(C#N)ccc2Oc2cc(Cl)cc(Cl)c2)C(C(=O)OC)C1 (stereo not shown) [Example 1-39]
> 7.00		N#Cc1ccc(Oc2cc(Cl)cc(Cl)c2)c(S(=O)(=O)N[C@@H]2CN3CCC2CC3)c1 [Example 1-32]
> 7.00		CC(=O)NCC1CN(S(=O)(=O)c2cc(C#N)ccc2Oc2cc(Cl)cc(Cl)c2)CCN1 (stereo not shown) [Example 1-8]
6.30 to 7.00		COC(=O)[C@@H]1C[C@H](N2CCCC2)CN1S(=O)(=O)c1cc(C#N)ccc1Oc1cc(Cl)cc(Cl)c1 [Example 1-13]
> 7.00		CC(=O)NCC1CNCCN1S(=O)(=O)c1cc(C#N)ccc1Oc1cc(Cl)cc(Cl)c1 (stereo not shown) [Example 1-10]
< 6.30	171 to 172 °C	N#Cc1ccc(Oc2cc(Cl)cc(Cl)c2)c(S(=O)(=O)N2CCCCC2)c1 [Example 1-5]
> 7.00	124 °C	N#Cc1ccc(Oc2cc(Cl)cc(Cl)c2)c(S(=O)(=O)N2CCC(N3CCC[C@H]3CO)CC2)c1 [Example 1-45]
> 7.00	155 to 156 °C	N#Cc1ccc(Oc2cc(Cl)cc(Cl)c2)c(S(=O)(=O)N2CC[C@H](NCCO)C2)c1 [Example 1-16]
> 7.00		N#Cc1ccc(Oc2cc(Cl)cc(Cl)c2)c(S(=O)(=O)N2CCNCC2CN2C(=O)CCC2=O)c1 (stereo not shown) [Example 1-27]
> 7.00		CS(=O)(=O)NCC1CNCCN1S(=O)(=O)c1cc(C#N)ccc1Oc1cc(Cl)cc(Cl)c1 (stereo not shown) [Example 1-9]
> 7.00		N#Cc1ccc(Oc2cc(Cl)cc(Cl)c2)c(S(=O)(=O)N[C@H]2CN3CCC2CC3)c1 [Example 1-1, N—(R)-(+)-(1-aza-bicyclo[2.2.2]oct-3-yl)-5-cyano-2-(3,5-dichloro-phenoxy)-benzenesulfonamide]
> 7.00	169 to 170 °C	CC(=O)c1ccc(Oc2cc(Cl)cc(Cl)c2)c(S(=O)(=O)N2CCNCC2)c1 [Example 1-31]
> 7.00	103 °C	CC(C)(O)[C@@H]1CCCN1C1CCN(S(=O)(=O)c2cc(C#N)ccc2Oc2cc(Cl)cc(Cl)c2)CC1 [Example 1-34]
> 7.00	184 to 185 °C (dec.)	Cl.N#Cc1ccc(Oc2cc(Cl)cc(Cl)c2)c(S(=O)(=O)N2CCNC(Cn3cncn3)C2)c1 (stereo not shown) [Example 1-37]
< 6.30		N#Cc1ccc(Oc2cc(Cl)cc(Cl)c2)c(S(=O)(=O)C2CCNCC2)c1 [Example 2-1, 4-(3,5-Dichloro-phenoxy)-3-(piperidine-4-sulfonyl)-benzonitrile]
6.30 to 7.00	137 to 139 °C	N#Cc1ccc(Oc2cc(Cl)cc(Cl)c2)c(S(=O)(=O)N2CCC(N3C[C@H](O)[C@@H](O)C3)CC2)c1 [Example 1-11]
